# Experimental data as given in article PMC6153434, “Bystander Effects of Hypoxia-Activated Prodrugs: Agent-Based Modeling Using Three Dimensional Cell Cultures” (Frontiers in Pharmacology, 2018).
# Experiments:
# [1] = system: POR-null 'target' HCT116 cell lines (PORko-R, PORko-G); assay: Monolayer clonogenic assay under anoxia (targets); format: cell-based; details: monolayer cultures, anoxic exposure 1 h (used for ABM analysis, Figure 9A)
# Text: Log-phase cells were trypsinized and cell pellets, collected by centrifugation, were transferred to a Bactron anaerobic chamber (Sheldon Manufacturing Inc., Cornelius, OR, United States) under 3–5% H2/5% CO2/balance N2, <100 ppm O2, with a palladium/activated carbon catalyst to maintain anoxia. (The term “anoxia” is used throughout to refer to the gas phase, without necessarily implying complete anoxia in monolayers or spheroids as discussed below.) Cells were resuspended and seeded at 10^5 cells/0.15 mL in 96-well plates using medium and plates equilibrated in the chamber for 3 days to ensure complete deoxygenation. After incubation at 37 °C for 2 h for cell attachment, cells were exposed to drugs for 1 h, removed from the chamber, trypsinized, counted with a Coulter counter (model Z2; Beckman Coulter^TM, Indianapolis, IN, United States) and plated in 6-well plates. After 10 days, plates were stained with methylene blue (2 g/L in EtOH:H2O, 1:1 v/v) and colonies with more than 50 cells were counted. Plating efficiency (PE) was calculated as number of colonies/number of cells plated, and surviving fraction (SF) was determined as PE(drug treated)/PE(control).
# [2] = system: high-POR 'activator' HCT116 cell lines (POR-R, POR-G); format: cell-based; details: monolayer cultures
# [3] = system: POR-null 'target' HCT116 cells in spheroids; format: cell-based
# [4] = system: high-POR 'activator' HCT116 cells in spheroids; assay: Spheroid clonogenic assay under anoxia (activators in co-culture spheroids); format: cell-based; details: spheroids comprising 100% activators, anoxic exposure 1 h (Figure 9B)
# [5] = system: POR-G activators and PORko-R targets (HCT116)
# [6] = physchem
# [7] = system: HCT116 and HCT116/POR#6; details: cited from earlier work
# [8] = published value, PR104H+M model, ref Foehrenbacher et al., 2013
# [9] = published value, ref Foehrenbacher et al., 2013
compound,measurement,setting,value
CS(=O)(=O)OCCN(CCBr)c1c(C(=O)NCCO)cc([N+](=O)[O-])cc1[N+](=O)[O-] [PR104A],PR-104A concentration giving 90% kill,[1],17 µM
same,PR-104A concentration giving 90% kill,"[2]; activators, anoxic exposure 1 h (used for ABM analysis, Figure 9A)",1 µM
same,sensitivity of activator cell lines (clonogenic survival),"[2]; 1 h under anoxia, relative to targets",marked increases in the sensitivity
same,killing of target cells as proportion of activators increases,"[3]; co-culture spheroids 0, 10, 50 or 100% activators, 1 h under anoxia",markedly increased with increasing proportion of POR-G activator cells
same,bystander effect,"[3]; spheroid co-cultures with ABM simulation, anoxia",clearly demonstrated the existence of a bystander effect
same,concentration giving 90% kill in spheroids,"[3]; spheroids comprising 100% targets, anoxic exposure 1 h (Figure 9B)",20 µM
same,concentration giving 90% kill in spheroids,[4],5 µM
same,"Activator F2, proportion of O2-dependent rate of metabolism of the drug in activators",[5],0.977
same,"Activator Kmet,0, rate constant for the maximum rate of metabolism in activator cells under anoxia",[5],2 min⁻¹
same,Hill parameter n,[5],2
same,"KO2, O2 concentration for half-maximum prodrug activation",[5],0.126
same,"Kc, intrinsic cytotoxic potency",[5],0 mM⁻¹ s⁻¹
same,"Kin, rate constant for transfer from the extracellular to the intracellular compartment",[5],3 min⁻¹
same,"Kout, rate constant for transfer from the intracellular to the extracellular compartment",[5],0.5 min⁻¹
same,"Target F2, proportion of O2-dependent rate of metabolism of the drug in targets",[5],0.977
same,"Target Kmet,0, rate constants for the maximum rate of metabolism in target cells under anoxia",[5],0.03 min⁻¹
same,half-life,[6],612 min
same,"Half-life, non-enzymatic loss in culture medium","[7]; 37 °C, published value, PR104H+M model, ref Foehrenbacher et al., 2013",10.2 h
same,"Activator Kmet,0, rate constant for the maximum rate of metabolism in activator cells under anoxia",[7]; [8],1.08 min⁻¹
same,"Kc, intrinsic cytotoxic potency",[7]; [8],0 mM⁻¹ s⁻¹
same,"Kin, rate constant for transfer from the extracellular to the intracellular compartment",[7]; [8],3 min⁻¹
same,"Kout, rate constant for transfer from the intracellular to the extracellular compartment",[7]; [8],0.5 min⁻¹
same,"Target Kmet,0, rate constants for the maximum rate of metabolism in target cells under anoxia",[7]; [8],0.054 min⁻¹
same,"Activator F2, proportion of O2-dependent rate of metabolism of the drug in activators",[7]; [9],0.977
same,Hill parameter n,[7]; [9],1
same,"Target F2, proportion of O2-dependent rate of metabolism of the drug in targets",[7]; [9],0.977
same,"KO2, O2 concentration for half-maximum prodrug activation","[7]; published value, ref Hicks et al., 2007",0.126
same,KO2 (sensitivity of PR104A metabolism to oxygen),"[7]; ref Hicks et al., 2007",0.126 µM
